In ChEMBL document CHEMBL4400573, “Synthesis and structure-activity relationships of pyrazine-2-carboxamide derivatives as novel echinoderm microtubule-associated protein-like 4 (EML4)-anaplastic lymphoma kinase (ALK) inhibitors” (Bioorg Med Chem, 2019):
≈ marks a conversion by molar mass, not a printed value.

Assays:
[1] = Aqueous solubility of the compound in pH 6.8 JP2 fluid measured after 20 hrs by HPLC analysis; format: physicochemical
[2] = tested on: BaF3; assay: Antiproliferative activity against mouse BAF3 cells expressing EML4-fused ALK variant 1 assessed as reduction in cell viability measured after 2 days by alamar blue assay; format: functional, cell-based; details: BaF3, 48 h
[3] = Inhibition of EML4-fused ALK variant 1 (unknown origin) expressed in mouse BAF3 cells using peptide substrate measured after 1 hr by HTRF assay; format: cell-based, Homo sapiens
[4] = Toxicity in Balb/c nude mouse xenografted with mouse 3T3 cells expressing EML4-fused ALK variant 1 assessed as effect on body weight at 10 mg/kg, po administered once daily for 5 days; format: organism-based; details: in vivo, 120 h
[5] = tested on: NIH3T3; assay: Antitumor activity against mouse 3T3 cells expressing EML4-fused ALK variant 1 xenografted in Balb/c nude mouse assessed as tumor growth inhibition at 10 mg/kg, po administered once daily for 5 days measured post last dose relative to control; format: functional; set-up: Activity: scale not given: the % may be the effect or the level left
[6] = tested on: NIH3T3; assay: Antitumor activity against mouse 3T3 cells expressing EML4-fused ALK variant 1 xenografted in Balb/c nude mouse assessed as tumor regression at 10 mg/kg, po administered once daily for 5 days measured post last dose relative to control; format: functional
[7] = Permeability of the compound at pH 6.5 measured after 2 hrs by PAMPA; format: ADME; details: read-out: permeability

| SMILES | IC50 [2] | IC50 [3] | other results |
| --- | --- | --- | --- |
| CS(=O)(=O)c1cccc(Nc2nc(N[C@H]3CC[C@H](O)CC3)c(C3CC3)nc2C(N)=O)c1 | – | 37 nM | – |
| COc1cc(N2CCC(N3CCN(C)CC3)CC2)ccc1Nc1ncnc(Nc2ccccc2S(=O)(=O)C(C)C)n1 [ASP-3026] | – | 17 nM | Activity [4]: Non-Toxic; inhibition in vivo at 10 mg/kg ([5]; Mus musculus, NIH3T3, po, 120 h, read-out: TGI): 81% |
| Cc1nc(C(N)=O)c(Nc2cccc(S(C)(=O)=O)c2)nc1N[C@H]1CC[C@H](O)CC1 | – | 51 nM | – |
| CCCc1nc(C(N)=O)c(Nc2cccc(S(C)(=O)=O)c2)nc1N[C@H]1CC[C@H](O)CC1 | – | 23 nM | – |
| CS(=O)(=O)c1cccc(Nc2nc(N[C@H]3CC[C@H](O)CC3)c(Br)nc2C(N)=O)c1 | – | 82 nM | – |
| CCc1nc(C(N)=O)c(Nc2cccc(S(C)(=O)=O)c2)nc1N[C@H]1CC[C@H](O)CC1 | 68 nM | 17 nM | solubility at 20 h [1]: 1.1 µM (≈ 0.477 µg/mL) |
| CS(=O)(=O)c1cccc(Nc2nc(N[C@H]3CC[C@H](O)CC3)c(Cl)nc2C(N)=O)c1 | – | 82 nM | – |
| CS(=O)(=O)c1cccc(Nc2nc(N[C@H]3CC[C@H](O)CC3)cnc2C(N)=O)c1 | – | 270 nM | – |

Continued, in another order:

| IC50 [2] | IC50 [3] | SMILES | other results |
| --- | --- | --- | --- |
| 85 nM | 8.9 nM | CCc1nc(C(N)=O)c(Nc2ccc(N3CCC(N4CCN(C)CC4)CC3)cc2OC)nc1N[C@H]1CC[C@H](O)CC1 | solubility at 20 h [1]: ≥ 100 µM |
| 16 nM | 2.5 nM | CCNc1nc(Nc2ccc(N3CCC(N4CCN(C)CC4)CC3)c(OC)c2)c(C(N)=O)nc1CC | – |
| 12 nM | 0.8 nM | CCc1nc(C(N)=O)c(Nc2ccc(N3CCC(N4CCN(C)CC4)CC3)c(OC)c2)nc1NC(C)C | – |
| 31 nM | 6.6 nM | CCc1nc(C(N)=O)c(Nc2ccc(N3CCC(N4CCN(C)CC4)CC3)c(OC)c2)nc1N(C)CC | – |
| 9.7 nM | 1 nM | CCc1nc(C(N)=O)c(Nc2ccc(N3CCC(N4CCN(C)CC4)CC3)c(OC)c2)nc1N[C@H]1CC[C@H](OC)CC1 | Activity [4]: Toxic; Activity [6]: 62%; Papp at 2 h [7]: 21 ×10⁻⁶ cm/s |
| 48 nM | 13 nM | CCc1nc(C(N)=O)c(Nc2ccc(N3CCC(N4CCN(C)CC4)CC3)c(OC)c2)nc1N[C@@H]1CCCC[C@H]1O (racemic) | – |
| 9.5 nM | 0.37 nM | CCc1nc(C(N)=O)c(Nc2ccc(N3CCC(N4CCN(C)CC4)CC3)c(OC)c2)nc1N[C@H]1CC[C@H](O)CC1 | Activity [4]: Toxic; Activity [5]: 34%; solubility at 20 h [1]: ≥ 100 µM; Papp at 2 h [7]: 1.1 ×10⁻⁶ cm/s |
